In the supplement of paper PMC10307832:

Tests used:
Ponatinib = compound: Cc1ccc(C(=O)Nc2ccc(CN3CCN(C)CC3)c(C(F)(F)F)c2)cc1C#Cc1cnc2cccnn12 [Ponatinib]; assay: relative viability (nuclei count vs DMSO), 5 days (fraction); higher = more cells survive
Method in brief: (§1)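 Hoechst staining, done together with fixation and permeabilisation, marked nuclei for 4× imaging and MetaXpress counting. This followed 5 days without medium change after lung cancer cell lines, kept overnight at 37 °C in 1536-well plates, were pinned with five library-drug doses (not always all listed) spaced by √10 on vehicle-anchored plates. Viability is the ratio of treated-well to vehicle-well nuclei, expressed as a median across plates. Plates passed only at control CV below 25% with at least one doubling.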

Pazopanib = compound: Cc1ccc(Nc2nccc(N(C)c3ccc4c(C)n(C)nc4c3)n2)cc1S(N)(=O)=O [Pazopanib]; assay: as above
Method in brief: as §1

Cell Line	relative viability (Ponatinib; 0.002 µM)	relative viability (Ponatinib; 0.006325 µM)	relative viability (Ponatinib; 0.06325 µM)	relative viability (Ponatinib; 0.2 µM)	relative viability (Pazopanib; 0.01 µM)	relative viability (Pazopanib; 0.03162 µM)	relative viability (Pazopanib; 0.1 µM)	relative viability (Pazopanib; 0.3162 µM)	relative viability (Pazopanib; 1 µM)
201T	0.928	0.986	1.07	0.963	0.937	0.919	0.979	1.06	0.932
A549	0.809	0.975	1.02	0.917	0.935	0.99	1.04	1.01	1.17
A-427	0.928	1.05	0.958	0.81	0.863	1.12	0.885	1	1.14
ABC-1	0.865	0.852	0.96	0.751	0.798	0.89		1.08	0.974
BEN	0.765	0.967	1.01	0.847	0.729	1.1	0.929	1.05	1.05
CAL-12T	0.929	0.951	1.15	0.97	1.15	0.99	0.986	1.02	1.13
COR-L23	0.887	0.941	0.97	0.876	1.13	1	1.04	1.09	1.04
COR-L 105	1.01	0.933	1.18	1.05	1.08	0.91	0.95	1.1	1.14
Calu-6	0.987	0.967	1.02	0.905	0.99	1.07	1.04	1.01	0.974
ChaGo-K-1	0.872	0.988	1	0.88	0.927	1.01	1.04	0.99	0.978
EBC-1	0.926	1.05	1.16	0.924	1.01	1.05	0.978	0.956	1.09
EKVX	0.899	1.06	1.24	1.06	0.902	0.989	0.964	1.06	1.03
EMC-BAC-2	0.821	0.973	1.04	0.822		0.977	0.93	1.03	1.04
EPLC-272H	0.818	1.01	1.14	0.801	0.706	0.919	0.962	1.07	0.92
H3255	0.867	0.97	0.984	0.908	0.925	0.965	0.869	0.998	1.01
HARA	0.844	0.972	0.938	0.914	0.957	0.978	1	1.04	1.03
HCC-15	0.972	1.06	1.1	1.02	0.837	0.987	1.02	1.06	1.03
HCC-44	0.908	0.929	0.942	0.958	0.886	0.929	0.998	0.983	1.02
HCC-78	0.8	0.994	1.03	0.874	0.743	1	0.889	0.933	0.936

Cell Line	relative viability (Ponatinib; 0.002 µM)	relative viability (Ponatinib; 0.006325 µM)	relative viability (Ponatinib; 0.06325 µM)	relative viability (Ponatinib; 0.2 µM)	relative viability (Pazopanib; 0.01 µM)	relative viability (Pazopanib; 0.03162 µM)	relative viability (Pazopanib; 0.1 µM)	relative viability (Pazopanib; 0.3162 µM)	relative viability (Pazopanib; 1 µM)
HCC-366	1.03	1.04	1.05	0.989	0.922	0.989	1.03	1	1.1
HCC-827	0.983	1.03	1.07	1.03	1.11	1.06	1.04	1.07	1.04
HOP-62	0.921	0.86	0.912	0.857	0.963	1	1.02	1.07	0.958
IA-LM	0.872	0.903	0.953	0.802	0.935	0.995	1.03	1.05	0.918
LC-2-ad	0.85	0.885	0.785	0.768	1	0.99	1.01	1.07	1.07
LCLC-97TM1	0.925	0.996	0.961	0.892		1	0.912	1.02	1.04
LCLC-103H	0.925	1	1.05	0.957	0.762	1.03	0.984	0.948	1.04
LK-2	0.872	1	0.816	0.73	0.891	0.965	0.943	0.928	0.858
LOU-NH91	0.957	1.03	1.04	0.938	0.903	0.955	0.949	1.11	1.01
LU99A	0.94	1.02	0.943	0.939	0.759	0.909	1.01	1.03	1.01
LXF-289	0.948	0.998	0.984	0.969	1.07	0.989	1.04	0.997	1
NCI-H23	0.862	1	1.15	0.833	0.858	1.04	1.03	1.02	1.29
NCI-H322M	0.96	0.983	0.953	0.853	0.906	0.996	0.92	0.967	1.03
NCI-H358	0.904	1.04	1.01	0.9	1.04	0.927	0.933	0.991	1.15
NCI-H441	0.899	0.925	1.07	0.855	0.931	1.05	0.982	0.905	0.958
NCI-H460	0.943	0.958	0.969	0.985	0.966	1	1.04	1.01	1.05
NCI-H520	0.774	0.921	0.832	0.628	0.858	1.01	1.01	1.1	1.11
NCI-H522	0.816	1	0.818	0.847	0.723	0.978	0.864	0.983	1.12
